Results reported in patent US5324821A, “Method of preparing a lipoprotein modified by incorporation of a lipophilic active substance” (Universite Droit et Sante Lille II, priority 1990, dated 1994).

tested on: LDLs; assay: Quantities of drug incorporated into LDLs; assay type: physicochemical; details: ametantrone and mitoxantrone and esters; per particle of LDL; ametantrone esters by optical density at 614 nm; incubation 18 hours at 37° C.
Protocol: One mg of drug is dissolved in the minimum quantity of an organic solvent (chloroform) then the solvent is evaporated under reduced pressure.
Two hundred μl of washed Endolipide are then added. The tube is shaken vigorously, swirling for 1 minute to dissolve the drug in the lipid phase. The LDLs are then added in a quantity containing 1 mg of proteins, assayed by the method of Lowry modified by Peterson (see Lowry et al., J. Biol. Chem. 193, 265-275 (1951)) and 5 ml of LPDS. After stirring, the mixture is incubated for 18 hours at 37° C.
The LDLs are then separated by ultracentrifugation according to a KBr density gradient (centrifugation for 24 hours at 4° C. and 40,000 rpm).
The modified LDLs are then dialyzed against an NaCl solution, 140 mM, pH 8, then filtered under sterile conditions (0.22 μm) and stored under nitrogen.
drugs (on the modified LDLs): the ametantrone esters were tested after precipitation of apolipoprotein B with isopropanol. For this purpose, 100 μl of LDL are added to 100 μl of isopropanol and stirred for 1 minute then left to stand overnight at 10° C. with stirring. The mixture is then centrifuged for 30 minutes at 300 rpm. The supernatant is removed and evaporated. The residue is treated with 1 ml of chloroform. The optical density is read off at a wavelength of 614 nm and compared to a reference range of the drug.
The elliptinium esters are tested by HPLC according to the technique described by Samadi-Baboli (thesis cited above).

Row | Compound | quantity of drug incorporated into LDLs (uptake)
1 | CC/C=C\C/C=C\C/C=C\CCCCCCCC(=O)OCCNCCNc1ccc(NCCNCCOC(=O)CCCCCCC/C=C\C/C=C\C/C=C\CC)c2c1C(=O)c1ccccc1C2=O [Ametantrone dilinolenate] | 90 molecules/particle
2 | CCCCCCCC/C=C\CCCCCCCC(=O)OCCNCCNc1ccc(NCCNCCOC(=O)CCCCCCC/C=C\CCCCCCCC)c2c1C(=O)c1ccccc1C2=O [Ametantrone dioleate] | 2 molecules/particle
3 | CCCCCCCCCCCCCCCC(=O)OCCNCCNc1ccc(NCCNCCOC(=O)CCCCCCCCCCCCCCC)c2c1C(=O)c1ccccc1C2=O [Ametantrone dipalmitate] | 2 molecules/particle
4 | CCCCCCCCCCCCCCCCCC(=O)OCCNCCNc1ccc(NCCNCCOC(=O)CCCCCCCCCCCCCCCCC)c2c1C(=O)c1ccccc1C2=O [Ametantrone distearate] | 1 molecules/particle
5 | CC/C=C\C/C=C\C/C=C\CCCCCCCC(=O)OCCNCCNc1ccc(NCCNCCO)c2c1C(=O)c1ccccc1C2=O [Ametantrone monolinolenate] | 80 molecules/particle
6 | CCCCCCCC/C=C\CCCCCCCC(=O)OCCNCCNc1ccc(NCCNCCO)c2c1C(=O)c1ccccc1C2=O [Ametantrone monooleate] | 2 molecules/particle
7 | CCCCCCCCCCCCCCCC(=O)OCCNCCNc1ccc(NCCNCCO)c2c1C(=O)c1ccccc1C2=O [Ametantrone monopalmitate] | 2 molecules/particle
8 | CCCCCCCCCCCCCCCCCC(=O)OCCNCCNc1ccc(NCCNCCO)c2c1C(=O)c1ccccc1C2=O [Ametantrone monostearate] | 1 molecules/particle
9 | O=C1c2ccccc2C(=O)c2c(NCCNCCO)ccc(NCCNCCO)c21 [Ametantrone, reference compound] | 1 molecules/particle
10 | CC/C=C\C/C=C\C/C=C\CCCCCCCC(=O)OCCNCCNc1ccc(NCCNCCOC(=O)CCCCCCC/C=C\C/C=C\C/C=C\CC)c2c1C(=O)c1c(O)ccc(O)c1C2=O [Mitoxantrone dilinolenate] | 22 molecules/particle
11 | O=C1c2c(O)ccc(O)c2C(=O)c2c(NCCNCCO)ccc(NCCNCCO)c21 [Mitoxantrone, reference compound] | 1 molecules/particle

same assay, conditions: elliptinium esters, tested by HPLC; incubation 18 hours at 37° C.

Row | Compound | quantity of drug incorporated into LDLs (uptake)
12 | CCCCCCCC/C=C\CCCCCCCC(=O)Oc1ccc2[nH]c3c(C)c4cc[n+](C)cc4c(C)c3c2c1 [Elliptinium oleate] | 83 μg per mg of protein
13 | CCCCCCCCCCCCCCCC(=O)Oc1ccc2[nH]c3c(C)c4cc[n+](C)cc4c(C)c3c2c1 [Elliptinium palmitate] | 58 μg per mg of protein
14 | CCCCCCCCCCCCCCCCCC(=O)Oc1ccc2[nH]c3c(C)c4cc[n+](C)cc4c(C)c3c2c1 [Elliptinium stearate] | 37 μg per mg of protein
